Test results from ChEMBL document CHEMBL1201862, “PubChem BioAssay data set” (2004).
Calls of active or inactive are those of the source.

How the values were obtained:
[1] = ADAM10 inhibitors, peptide cleavage, dose response, biochemical, QFRET (AID 743254);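 further: ADAM10 enzyme with the DM2 quenched FRET peptide as substrate; EDANS fluorescence gain as the protease cuts the substrate; inhibitor potency against ADAM10 proteolytic activity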
[2] = target: Disintegrin and metalloproteinase domain-containing protein 17 (Homo sapiens, UniProt P78536); experiment: ADAM17 protease inhibitors, dose response, counter-screen for ADAM10 exosite inhibitor project, biochemical, quenched FRET substrate (AID 743253)
[3] = Shn3 3'UTR reporter inhibitors, dose response, cell-based, Clone20 osteoblasts, firefly luciferase, cherry-picked (AID 624132); type: functional;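 further: firefly luciferase luminescence from reporter carrying the Shn3 3'UTR in osteoblasts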
[4] = HepG2 cell cytotoxicity, dose response, cytotoxicity control for Shn3 inhibitor project, CellTiter-Glo, cherry-picked (AID 624134); type: functional, cell-based
[5] = control 3'UTR Renilla luciferase suppression, dose response, counter-screen for Shn3 inhibitor project, cell-based, Clone20-Shn3RL, cherry-picked (AID 624133); type: functional
Protein Wnt-3a = Protein Wnt-3a (Mus musculus, UniProt P27467); experiment: Wnt3a-driven reporter signaling inhibition, dose response, selectivity assay for Gli-SUFU antagonist project, Wnt-LIGHT cells, luminescence (AID 651570); type: functional; details: read-out: IC50_Mean;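 further: Wnt-LIGHT reporter cells stimulated with conditioned medium from Wnt3a-producing cells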
Galanin receptor type 3 = target: T1, Galanin receptor type 3 (Homo sapiens, UniProt O60755); experiment: Fluorescence-based cell-based primary high throughput dose response assay to identify antagonists of the Galanin Receptor 3 (GalR3).; type: functional
T1 sequence (O60755 whole entry): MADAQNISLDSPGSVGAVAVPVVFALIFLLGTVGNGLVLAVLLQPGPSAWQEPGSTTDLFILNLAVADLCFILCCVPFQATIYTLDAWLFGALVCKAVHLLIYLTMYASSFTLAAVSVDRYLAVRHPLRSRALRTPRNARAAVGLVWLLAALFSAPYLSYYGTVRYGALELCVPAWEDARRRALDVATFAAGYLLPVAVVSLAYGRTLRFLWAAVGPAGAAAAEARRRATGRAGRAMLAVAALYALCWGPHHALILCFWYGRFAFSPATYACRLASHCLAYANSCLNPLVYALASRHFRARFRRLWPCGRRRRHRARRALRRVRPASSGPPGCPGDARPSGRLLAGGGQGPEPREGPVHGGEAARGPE

cells [6] = type: functional, cell-based; details: HEK-CNG
[7] = target: COUP transcription factor 2 (Homo sapiens, UniProt P24468); experiment: Luminescence-based cell-based high throughput dose response assay to identify inhibitors of COUP-TFII (NR2F2).; type: functional;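 further: HEK293 cells transiently cotransfected with COUP-TFII expression vector and reporter; luciferase reporter luminescence driven by COUP-TFII from the pX2-168 reporter plasmid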
Major prion protein = Major prion protein (Homo sapiens, UniProt P04156); type: functional, cell-based
cells [8] = experiment: cells
[9] = HepG2 cell cytotoxicity, dose response, cytotoxicity control, ATP luminescence, cherry-pick, set 6 (AID 1053125); type: functional, cell-based
cells [10] = details: A549
[11] = Artemis endonuclease inhibitor potency, dose response, biochemical, fluorescence intensity (AID 720701); type: functional;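 further: Artemis endonuclease enzyme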
[12] = target: FAD-linked sulfhydryl oxidase ALR (Homo sapiens, UniProt P55789); experiment: inhibitors of human ALR sulfhydryl oxidase, dose response, biochemical, H2O2 detection, luminescence, cherry-pick (AID 493248)
[13] = target: T2, Rac GTPase-activating protein 1 (Homo sapiens, UniProt Q9H0H5); experiment: MgcRacGAP GTPase-activating activity inhibitors, confirmation, biochemical, ADP Hunter fluorescence, primary and confirmatory (AID 624330); type: functional
T2 sequence (Q9H0H5 whole entry): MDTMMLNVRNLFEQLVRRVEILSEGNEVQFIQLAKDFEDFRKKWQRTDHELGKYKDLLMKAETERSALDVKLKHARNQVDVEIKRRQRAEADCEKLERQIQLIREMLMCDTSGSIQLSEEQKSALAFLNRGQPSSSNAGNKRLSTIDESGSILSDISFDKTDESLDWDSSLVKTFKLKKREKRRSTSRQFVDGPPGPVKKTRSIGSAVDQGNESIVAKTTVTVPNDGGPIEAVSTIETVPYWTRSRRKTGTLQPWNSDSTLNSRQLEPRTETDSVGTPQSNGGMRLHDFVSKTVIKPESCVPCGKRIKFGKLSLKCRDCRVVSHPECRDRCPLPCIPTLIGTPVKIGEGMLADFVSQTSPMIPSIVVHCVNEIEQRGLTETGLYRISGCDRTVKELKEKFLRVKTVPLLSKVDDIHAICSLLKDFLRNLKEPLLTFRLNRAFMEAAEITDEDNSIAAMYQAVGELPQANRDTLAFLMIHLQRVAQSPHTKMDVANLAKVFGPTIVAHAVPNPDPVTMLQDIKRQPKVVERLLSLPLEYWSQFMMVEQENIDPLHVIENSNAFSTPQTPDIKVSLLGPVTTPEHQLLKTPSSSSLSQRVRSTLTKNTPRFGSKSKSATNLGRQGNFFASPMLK

Protein Tat = Protein Tat (Human immunodeficiency virus type 1 group M subtype B (isolate HXB2)(HIV-1), UniProt P04608); type: functional;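 further: tat binding to TAR RNA read out by fluorescence polarization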
[14] = target: Peroxisome proliferator-activated receptor gamma/Nuclear receptor coactivator 1 (Homo sapiens, UniProt P37231); experiment: (§1) TR-FRET dose response biochemical High Throughput Screening assay for agonists of the steroid receptor coactivator 1 (SRC-1) recruitment by the peroxisome proliferator-activated receptor gamma (PPAR gamma): non-selective agonists. [Related pubchem assays (depositor defined):AID1300, AID1808, AID504735, AID631]; type: protein assay
[15] = target: Peroxisome proliferator-activated receptor gamma/Nuclear receptor coactivator 3 (Homo sapiens, UniProt P37231); experiment: as §1, with “3 (SRC-3)” for “1 (SRC-1)”, “assays: 1301 (Confirmation screen.), 1048 (Primary screen.)]” for “assays (depositor defined):AID1300, AID1808, AID504735, AID631]”; type: functional
[16] = target: Peroxisome proliferator-activated receptor gamma/Nuclear receptor coactivator 2 (Homo sapiens, UniProt P37231); experiment: TR-FRET dose response biochemical High Throughput Screening assay for agonists of the steroid receptor coactivator 2 (SRC-2) recruitment by the peroxisome proliferator-activated receptor gamma (PPAR gamma): non-selective agonists. [Related pubchem assays: 1297, 1032 ]; type: functional

NC(=O)[C@@H]1CC2(CC(c3cccc(NC(=O)CC(c4ccccc4)c4ccccc4)c3)=NO2)CN1C(=O)COc1ccc(Cl)cc1 (some centres not stated)
IC50 [1]: > 69.5 µM (inactive)
IC50 [2]: > 69.5 µM (inactive)

Cc1nn(C)c(C(=O)NCc2ccc(Cl)cc2)c1Cl
AC50 [3]: 1.74 µM (active)
AC50 [4]: 49.8 µM (active)
AC50 [5]: 6.29 µM (active)
IC50 (Protein Wnt-3a): 1.92 µM (active)
IC50 (Galanin receptor type 3): 0.158 µM (active)
EC50 (cells [6]): > 29.9 µM (inactive)
IC50 [7]: 14 µM (inactive)

CCOC(=O)N1CCN(C(=O)COc2ccc3ccccc3c2Br)CC1
IC50 (Major prion protein): 6.28 µM (active)
IC50 (cells [8]): > 138 µM (inactive)

CN(C)CCOCCOc1ccc(Cl)c2ccccc12
AC50 [9]: > 52 µM (inactive)
AC50 (cells [10]): > 52 µM (inactive)

CCOC(=O)C1CCCN(Cc2nc(N)nc(Nc3ccc(Cl)cc3)n2)C1 (configuration not stated)
IC50 [11]: > 20 µM (inactive)

CC(=O)N1CCN(c2ccc(NCc3ccc(F)cc3)cc2)CC1
AC50 [12]: 0.198 µM (active)
IC50 [13]: 12.9 µM (active)
IC50 (Protein Tat): > 100 µM (inconclusive)

CNC(=O)NC(=O)CSc1nc(-c2cccs2)c(C#N)c(=O)[nH]1
EC50 [14]: > 79.4 µM (inactive)
EC50 [15]: > 79.4 µM (not active)
EC50 [16]: > 79.4 µM (not active)
IC50 (Major prion protein): 0.876 µM (active)

CNC(=O)NC(=O)CSc1nc(O)c(C#N)c(-c2cccs2)n1
IC50 (cells [8]): > 138 µM (inactive)
